For 35 compounds, activity results are on record in patent US20100305120A1, “COMPOUNDS FOR TREATING MUSCULAR DYSTROPHY” (BIOMARIN IGA LIMITED, priority 2008, published 2010).

Bounds are passed on as bounds.

The test system of the first assay is Utrophin A promoter linked to a luciferase reporter gene. In words: Luciferase reporter assay (murine H2K cells), H2K/mdx/Utro A reporter cell line. It is filed as cell-based. As to conditions: 48 h; test compound concentration 3 μM; mdx mouse H2K Utrophin A reporter cells; read-out: Activity (luciferase level relative to control). The essentials: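 Immortalized mdx mouse H2K myoblasts stably carrying ~5 kb utrophin A promoter–luciferase construct, kept at 33 °C, 10% CO2. Compound added 24 h after plating, typically at 10 μM final, for 48 h; luciferase measured by cell lysis and luminescence.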
As for `CS(=O)(=O)c1ccc(Cn2nc(C(=O)Nc3cnc4ccccc4c3)c3ccccc32)cc1` [Compound 103, 1-(4-(methylsulfonyl)benzyl)-N-(quinolin-3-yl)-1H-indazole-3-carboxamide], the activity at 3 µM was under 200%.

Staying with this assay, now noted: 48 h; test compound concentration 10 μM; mdx mouse H2K Utrophin A reporter cells; read-out: Activity (luciferase level relative to control).
With `CS(=O)(=O)c1ccc(Cn2nc(C(=O)Nc3ccc(OC(F)(F)F)cc3)c3ccccc32)cc1` [Compound 23, 1-(4-(methylsulfonyl)benzyl)-N-(4-(trifluoromethoxy)phenyl)-1H-indazole-3-carboxamide], the activity at 10 µM was under 200%.
Same read-out and setting: then `CC(=O)Nc1ccc(NC(=O)c2nn(Cc3ccc(S(C)(=O)=O)cc3)c3ccccc23)cc1` [Compound 107, N-(4-acetamidophenyl)-1-(4-(methylsulfonyl)benzyl)-1H-indazole-3-carboxamide], with 201 to 300%.
The same measure, in the same setting: then `CS(=O)(=O)c1cccc(Cn2nc(C(=O)Nc3ccc4c(c3)OCO4)c3ccccc32)c1` [Compound 127, N-(benzo[d][1,3]dioxol-5-yl)-1-(3-(methylsulfonyl)benzyl)-1H-indazole-3-carboxamide], with under 200%.
For the compound `CS(=O)(=O)c1ccc(Cn2nc(C(=S)Nc3ccc4c(c3)OCO4)c3ccccc32)cc1` [Compound 102, N-(benzo[d][1,3]dioxol-5-yl)-1-(4-(methylsulfonyl)benzyl)-1H-indazole-3-carbothioamide], the activity at 10 µM fell in the range of 201 to 300%.
Same read-out and setting: then `O=C(Nc1ccc(OC(F)(F)F)cc1)c1nn(Cc2ccc(C(=O)N3CCOCC3)cc2)c2ccccc12` [Compound 61, 1-(4-(morpholine-4-carbonyl)benzyl)-N-(4-(trifluoromethoxy)phenyl)-1H-indazole-3-carboxamide], with over 401%.
Same read-out and setting: then `O=C(Nc1ccc(N2CCCCC2)cc1)c1nn(CCOc2ccccc2)c2ccccc12` [Compound 75, 1-(2-phenoxyethyl)-N-(4-(piperidin-1-yl)phenyl)-1H-indazole-3-carboxamide], with 201 to 300%; and `O=C(Nc1ccc2c(c1)OCO2)c1nn(CCCOc2ccccc2)c2ccccc12` [Compound 45, N-(benzo[d][1,3]dioxol-5-yl)-1-(3-phenoxypropyl)-1H-indazole-3-carboxamide], with over 401%.
On the same count and under the same terms, then `Cc1ccc(NC(=O)c2nn(Cc3ccc(C(=O)N(C)C)cc3)c3ccccc23)cc1` [Compound 138, 1-(4-(dimethylcarbamoyl)benzyl)-N-p-tolyl-1H-indazole-3-carboxamide], with 201 to 300%; and `CS(=O)(=O)c1ccc(Cn2nc(C(=O)Nc3ccc4c(c3)OC(F)(F)O4)c3ccccc32)cc1` [Compound 35, N-(2,2-difluorobenzo[d][1,3]dioxol-5-yl)-1-(4-(methylsulfonyl)benzyl)-1H-indazole-3-carboxamide], with under 200%.
As for `O=C(Nc1ccc2c(c1)OCCO2)c1nn(Cc2ccc(C(=O)N3CCOCC3)cc2)c2ccc(F)cc12` [Compound 160, N-(2,3-dihydrobenzo[b][1,4]dioxin-6-yl)-5-fluoro-1-(4-(morpholine-4-carbonyl)benzyl)-1H-indazole-3-carboxamide], the activity at 10 µM is under 200%.
Still for that read-out and setting: then `CS(=O)(=O)c1ccc(Cn2nc(C(=O)O)c3ccccc32)cc1` [Compound 157, 1-(4-(methylsulphonyl)benzyl)-1H-indazole-3-carboxylic acid], with under 200%; and `O=C(Nc1ccc2c(c1)OCO2)c1nn(Cc2ccon2)c2ccccc12` [Compound 145, N-(benzo[d][1,3]dioxol-5-yl)-1-(isoxazol-3-ylmethyl)-1H-indazole-3-carboxamide], with under 200%; and `CC(C)c1ccc(Cn2nc(C(=O)Nc3ccc4c(c3)OCO4)c3ccccc32)cc1` [Compound 119, N-(benzo[d][1,3]dioxol-5-yl)-1-(4-isopropylbenzyl)-1H-indazole-3-carboxamide], with under 200%.
In the case of `CS(=O)(=O)c1ccc(Cn2nc(C(=O)Nc3ccc4nccnc4c3)c3ccccc32)cc1` [Compound 110, 1-(4-(methylsulfonyl)benzyl)-N-(quinoxalin-6-yl)-1H-indazole-3-carboxamide], the activity at 10 µM fell in the range of 301 to 400%.
With `O=C(Nc1ccc2c(c1)OCCO2)c1nn(Cc2ccc(C(=O)N3CCOCC3)cc2)c2ccccc12` [Compound 143, N-(2,3-dihydrobenzo[b][1,4]dioxin-6-yl)-1-(4-(morpholine-4-carbonyl)benzyl)-1H-indazole-3-carboxamide], the activity at 10 µM is 301 to 400%.
For the compound `CCS(=O)(=O)c1ccc(Cn2nc(C(=O)Nc3ccc4c(c3)OCO4)c3ccccc32)cc1` [Compound 156, N-(benzo[d][1,3]dioxol-5-yl)-1-(4-(ethylsulphonyl)benzyl)-1H-indazole-3-carboxamide], the activity at 10 µM was 201 to 300%.
Regarding `CS(=O)(=O)c1ccc(Cn2nc(C(=O)Nc3ccc(N4CCCCC4)cc3)c3ccccc32)cc1` [Compound 18, 1-(4-(methylsulfonyl)benzyl)-N-(4-(piperidin-1-yl)phenyl)-1H-indazole-3-carboxamide], the activity at 10 µM was 201 to 300%.
Still for that read-out and setting: under `O=C(Nc1ccc2c(c1)OCO2)c1nn(Cc2ccsc2)c2ccccc12` [Compound 129, N-(benzo[d][1,3]dioxol-5-yl)-1-(thiophen-3-ylmethyl)-1H-indazole-3-carboxamide] stands under 200%; under `O=C(Nc1nc2ccccc2s1)c1nn(Cc2ccc(C(=O)N3CCOCC3)cc2)c2ccccc12` [Compound 17, N-(benzo[d]thiazol-2-yl)-1-(4-(morpholine-4-carbonyl)benzyl)-1H-indazole-3-carboxamide], 201 to 300%; under `Cc1cccc(CNC(=O)Nc2nn(Cc3cc4c(cc3Cl)OCO4)c3ccccc23)c1` [Compound 32, 1-(1-((6-chlorobenzo[d][1,3]dioxol-5-yl)methyl)-1H-indazol-3-yl)-3-(3-methylbenzyl)urea], under 200%.
The same measure, in the same setting: then `O=C(Nc1ccc2c(c1)OCO2)c1nn(Cc2ccc(-c3ccccc3)cc2)c2ccccc12` [Compound 50, N-(benzo[d][1,3]dioxol-5-yl)-1-(biphenyl-4-ylmethyl)-1H-indazole-3-carboxamide], with under 200%; and `O=C(Nc1cccc(F)c1)Nc1nn(Cc2ccc(COc3ccc4c(c3)OCO4)cc2)c2ccc(C(F)(F)F)cc12` [Compound 9, 1-(1-(4-((benzo[d][1,3]dioxol-5-yloxy)methyl)benzyl)-5-(trifluoromethyl)-1H-indazol-3-yl)-3-(3-fluorophenyl)urea], with under 200%.
On the same count and under the same terms, under `Cc1ccc(NC(=O)c2nn(Cc3ccc(S(C)(=O)=O)cc3)c3ccccc23)cc1C` [Compound 104, N-(3,4-dimethylphenyl)-1-(4-(methylsulfonyl)benzyl)-1H-indazole-3-carboxamide] stands 301 to 400%; under `O=C(Nc1ccc2c(c1)OCO2)c1nn(Cc2ccccc2)c2ccccc12` [Compound 87, N-(benzo[d][1,3]dioxol-5-yl)-1-benzyl-1H-indazole-3-carboxamide], under 200%.
As to `C#CCN(C)S(=O)(=O)c1ccc(Cn2nc(C(=O)Nc3ccc(C(N)=O)cc3)c3ccccc32)cc1` [Compound 76, N-(4-carbamoylphenyl)-1-(4-(N-methyl-N-(prop-2-ynyl)sulfamoyl)benzyl)-1H-indazole-3-carboxamide], the activity at 10 µM was under 200%.
The same measure, in the same setting: under `O=C(Nc1ccc2c(c1)OCO2)c1nn(Cc2ccc(C(=O)N3CCOCC3)cc2)c2ccccc12` [Compound 63, N-(benzo[d][1,3]dioxol-5-yl)-1-(4-(morpholine-4-carbonyl)benzyl)-1H-indazole-3-carboxamide] stands over 401%; under `CC(C)c1ccc(Cn2nc(C(=O)Nc3ccc(S(C)(=O)=O)cc3)c3ccccc32)cc1` [Compound 91, 1-(4-isopropylbenzyl)-N-(4-(methylsulfonyl)phenyl)-1H-indazole-3-carboxamide], under 200%; under `O=C(Nc1ccc2c(c1)OC(F)(F)O2)c1nn(Cc2ccc(C(=O)N3CCOCC3)cc2)c2ccccc12` [Compound 25, N-(2,2-difluorobenzo[d][1,3]dioxol-5-yl)-1-(4-(morpholine-4-carbonyl)benzyl)-1H-indazole-3-carboxamide], over 401%.
On to `CC(C)(C)c1ccc(Cn2nc(C(=O)Nc3ccc(OC(F)(F)F)cc3)c3ccccc32)cc1` [Compound 70, 1-(4-tert-butylbenzyl)-N-(4-(trifluoromethoxy)phenyl)-1H-indazole-3-carboxamide], for which the activity at 10 µM was under 200%.
Same read-out and setting: under `CCc1ccc(Cn2nc(C(=O)Nc3ccc4c(c3)OCO4)c3ccccc32)nc1` [Compound 153, N-(benzo[d][1,3]dioxol-5-yl)-1-((5-ethylpyridin-2-yl)methyl)-1H-indazole-3-carboxamide] stands under 200%; under `O=C(Nc1ccc2c(c1)OCO2)c1nn(Cc2cccnc2)c2ccccc12` [Compound 106, N-(benzo[d][1,3]dioxol-5-yl)-1-(pyridin-3-ylmethyl)-1H-indazole-3-carboxamide], 201 to 300%; under `O=C(Nc1ccc2c(c1)OCCO2)c1nn(Cc2ccc(C(=O)N3CCOCC3)cc2)c2cc(C(F)(F)F)ccc12` [Compound 163, N-(2,3-dihydrobenzo[b][1,4]dioxin-6-yl)-1-(4-(morpholine-4-carbonyl)benzyl)-6-(trifluoromethyl)-1H-indazole-3-carboxamide], under 200%.
In the case of `COc1ccc(NC(=O)c2nn(Cc3ccc(S(C)(=O)=O)cc3)c3ccccc23)cc1` [Compound 34, N-(4-methoxyphenyl)-1-(4-(methylsulfonyl)benzyl)-1H-indazole-3-carboxamide], the activity at 10 µM was in the range of 301 to 400%.
The same measure, in the same setting: then `CCN(CC)S(=O)(=O)c1ccc(Cn2nc(C(=O)Nc3nc4ccccc4s3)c3ccccc32)cc1` [Compound 7, N-(benzo[d]thiazol-2-yl)-1-(4-(N,N-diethylsulfamoyl)benzyl)-1H-indazole-3-carboxamide], with under 200%.
